Measurements reported in article PMC6150234, “HPLC Analysis and Biochemical Characterization of LOX from Eschscholtzia californica Cham” (Molecules : A Journal of Synthetic Chemistry and Natural …, 2017).

Test system: T1, California poppy LOX (purified LOX from California poppy seedlings; 9/13-LOX)
T1 construct: 85 kDa on SDS-PAGE
Assay: A234 spectrophotometry; Lineweaver-Burk
Format: biochemical, Eschscholzia californica
Conditions: 100 mM potassium phosphate pH 6.5, room temperature; 0.476-1.33 mM LA

CCCCC/C=C\C/C=C\CCCCCCCC(=O)O [linoleic acid]
Km: 2600 µM
